Legend:
Experiment in all cases: relative viability (nuclei count vs DMSO), 5 days (fraction); higher = more cells survive
[1] = compound: CCn1c(-c2nonc2N)nc2cnc(Oc3cccc(NC(=O)c4ccc(OCCN5CCOCC5)cc4)c3)cc21 + Nc1ncn([C@H]2C[C@H](O)[C@@H](CO)O2)c(=O)n1 [Decitabine] (partner 2 µM)
How it was run: (§1)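 Relative viability was taken as the ratio of nuclei in treated wells to nuclei in vehicle wells. Lung cancer cell lines in 1536-well plates received compounds by pin tool one day after seeding, either one drug alone or a fixed anchor-drug dose plus five library-drug doses (not always all listed) in √10 steps. Nuclei were counted on 4× images after 5 days of treatment, and values are medians of duplicate plates.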

[2] = compound: CCn1c(-c2nonc2N)nc2cnc(Oc3cccc(NC(=O)c4ccc(OCCN5CCOCC5)cc4)c3)cc21 + O=C(CCCCCCC(=O)Nc1ccccc1)NO [Vorinostat] (partner 1 µM)
How it was run: as §1

Mirin + Bortezomib = compound: N=C1NC(=O)/C(=C/c2ccc(O)cc2)S1 [Mirin] + CC(C)C[C@H](NC(=O)[C@H](Cc1ccccc1)NC(=O)c1cnccn1)B(O)O [Bortezomib] (partner 0.002 µM)
How it was run: as §1

[3] = compound: CCC1=CN=CN=C1N2CCN(CC2)CC3=NC4=C(N3)C=C(C=C4)C(F)(F)F + CCNC(=O)c1noc(-c2cc(C(C)C)c(O)cc2O)c1-c1ccc(CN2CCOCC2)cc1 [Luminespib] (partner 0.01 µM)
How it was run: as §1

Row | Cell Line | relative viability ([1]; first compound 0.04 µM) | relative viability ([1]; first compound 0.1265 µM) | relative viability ([1]; first compound 0.4 µM) | relative viability ([1]; first compound 1.265 µM) | relative viability ([1]; first compound 4 µM) | relative viability ([2]; first compound 0.04 µM) | relative viability ([2]; first compound 0.1265 µM) | relative viability ([2]; first compound 0.4 µM) | relative viability ([2]; first compound 1.265 µM) | relative viability ([2]; first compound 4 µM) | relative viability (Mirin + Bortezomib; first compound 0.25 µM) | relative viability (Mirin + Bortezomib; first compound 0.7906 µM) | relative viability (Mirin + Bortezomib; first compound 2.5 µM) | relative viability (Mirin + Bortezomib; first compound 7.906 µM) | relative viability (Mirin + Bortezomib; first compound 25 µM) | relative viability ([3]; first compound 0.04 µM) | relative viability ([3]; first compound 0.1265 µM) | relative viability ([3]; first compound 0.4 µM) | relative viability ([3]; first compound 1.265 µM) | relative viability ([3]; first compound 4 µM)
1 | NCI-H1993 | 0.557 | 0.616 | 0.652 | 0.496 | 0.531 | 0.991 | 0.764 | 0.649 | 0.697 | 0.697 | 1.04 | 1.12 | 1.06 | 1.02 | 0.972 | 0.852 | 0.802 | 0.836 | 0.772 | 0.816
2 | NCI-H2009 | 0.292 | 0.304 | 0.25 | 0.216 | 0.175 | 0.632 | 0.582 | 0.56 | 0.429 | 0.277 | 1 | 0.831 | 1.12 | 0.869 | 1.14 | 1.1 | 0.966 | 1.02 | 1.06 | 0.87
3 | NCI-H2023 | 0.232 | 0.231 | 0.216 | 0.173 | 0.199 | 1.02 | 0.675 | 0.669 | 0.429 | 0.334 | 1.13 | 0.807 | 1 | 1.05 | 0.926 | 0.7 | 0.594 | 0.706 | 0.72 | 0.626
4 | NCI-H2085 | 0.433 | 0.581 | 0.528 | 0.466 | 0.472 | 0.735 | 0.633 | 0.579 | 0.54 | 0.585 | 1.13 | 0.972 | 1.18 | 0.975 | 1.02 | 0.442 | 0.481 | 0.421 | 0.387 | 0.356
5 | NCI-H2087 | 0.321 | 0.324 | 0.285 | 0.289 | 0.315 | 0.776 | 0.584 | 0.668 | 0.565 | 0.509 | 0.885 | 0.826 | 0.87 | 0.924 | 1.16 | 0.164 | 0.227 | 0.162 | 0.142 | 0.142
6 | NCI-H2126 | 0.629 | 0.623 | 0.56 | 0.636 | 0.519 | 1.04 | 0.879 | 0.608 | 0.894 | 0.82 | 1.12 | 1.11 | 1.12 | 1.07 | 1.2 | 0.847 | 0.89 | 0.931 | 0.773 | 0.922
7 | NCI-H2347 | 0.607 | 0.565 | 0.624 | 0.461 | 0.434 | 0.654 | 0.656 | 0.488 | 0.348 | 0.427 | 0.824 | 1.02 | 1.32 | 0.639 | 1.01 | 0.346 | 0.415 | 0.372 | 0.228 | 0.44
8 | NCI-H2405 | 0.68 | 0.473 | 0.327 | 0.251 | 0.241 | 0.938 | 0.488 | 0.264 | 0.239 | 0.238 | 1.02 | 0.765 | 0.967 | 0.972 | 1.01 | 0.684 | 0.704 | 0.657 | – | 0.794
9 | NCI-H3122 | 0.429 | 0.428 | 0.49 | 0.401 | 0.42 | 1.1 | 0.971 | 0.671 | 0.781 | 0.61 | 1.06 | 0.985 | 0.986 | 1.1 | 1.1 | 0.109 | 0.0823 | 0.0856 | 0.0704 | 0.0698
10 | PC-3 [JPC-3] | 0.803 | 0.764 | 0.764 | 0.655 | 0.725 | 0.919 | 0.701 | 0.713 | 0.549 | 0.692 | 0.768 | 0.889 | 0.841 | 0.941 | 0.967 | 0.681 | 0.733 | 0.668 | 0.71 | 0.618
11 | PC-14 | 0.238 | 0.252 | 0.217 | 0.213 | 0.286 | 0.912 | 0.612 | 0.64 | 0.554 | 0.62 | 0.895 | 0.852 | 0.894 | 1.06 | 1.04 | 0.175 | 0.207 | 0.215 | 0.134 | 0.133
12 | RERF-LC-KJ | 0.621 | 0.695 | 0.588 | 0.452 | 0.29 | 0.762 | 0.728 | 0.589 | 0.409 | 0.521 | 1.22 | 1.25 | 1.07 | 1.18 | 1.2 | 1.24 | 1.23 | 1.21 | 1.12 | 1.05
13 | SK-LU-1 | 0.628 | 0.571 | 0.423 | 0.459 | 0.424 | 0.895 | 0.654 | 0.593 | 0.422 | 0.42 | 1.22 | 1.22 | 1.19 | – | 1.15 | 0.205 | 0.203 | 0.213 | 0.178 | 0.213
14 | SW 1573 | 0.476 | 0.466 | 0.365 | 0.23 | 0.173 | 0.966 | 0.534 | 0.37 | 0.304 | 0.237 | 1.01 | 1.06 | 1.14 | 0.95 | 0.855 | 0.158 | 0.211 | 0.174 | 0.273 | 0.399
